According to article PMC3691639, “Aldose reductase from Schistosoma japonicum: crystallization and structure-based inhibitor screening for discovering antischistosomal lead compounds” (Parasites & Vectors, 2013):

Molecular target: T1, recombinant Schistosoma japonicum aldose reductase (rSjAR; SjAR) (Schistosoma japonicum, UniProt Q5DD64)
T1 construct: gene Akr1b4; SjAR-pET28a plasmid, expressed in E. coli BL21(DE3)
T1 sequence (Q5DD64 1-310): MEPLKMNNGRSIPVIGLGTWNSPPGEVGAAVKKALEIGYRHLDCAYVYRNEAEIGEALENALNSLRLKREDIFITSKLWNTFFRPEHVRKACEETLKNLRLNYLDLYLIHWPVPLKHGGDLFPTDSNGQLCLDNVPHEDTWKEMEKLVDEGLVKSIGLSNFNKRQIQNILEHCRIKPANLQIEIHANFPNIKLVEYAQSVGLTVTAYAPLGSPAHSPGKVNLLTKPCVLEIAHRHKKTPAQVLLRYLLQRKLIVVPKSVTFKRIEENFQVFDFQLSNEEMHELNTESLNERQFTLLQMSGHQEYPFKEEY
Assay: NADPH depletion at […] nm, microplate
Type: biochemical

## O=C1c2ccccc2C(=C2c3ccccc3C(=O)c3ccccc32)c2ccccc21 [AR9]
  IC50: 30.6 µM
